Common to all, as to format: ADME, organism-based
Data set [1] concerns Homo sapiens. In words: Evaluation of pharmacokinetic parameters for Alprazolam following single oral administration of Alprazolam, and following co-administration with multiple doses of carbamazepine. The note with it: in vivo, dose 0.8 mg, dosed compound id 23, dosed compound name ALPRAZOLAM, regimen Single dose, tissue Plasma.
In data set [2] the test system is Homo sapiens. Description: (§1) Pharmacokinetic parameters for Alprazolam evaluated after oral administration of alprazolam to subjects of different ages and health conditions. On the set-up: route oral, dose Range 0.5 to 3. To be noted: in vivo, po, dosed compound id 23, dosed compound name ALPRAZOLAM, gender male and female, tissue Plasma.
Data set [3] can be described thus: as §1. On the set-up: route oral, dose Range 0.5 to 3. The note with it: human, in vivo, dosed compound id 23, dosed compound name ALPRAZOLAM, gender male and female, tissue Plasma.
Setting [4] is: interact cpd dose 300 mg, inter cpd dos duration 10 days.

Each structure is given as a SMILES string.

Turning to `Cc1nnc2n1-c1ccc(Cl)cc1C(c1ccccc1)=NC2` [ALPRAZOLAM], the CL in the data set on Homo sapiens [1] (setting [4]) was 2.13 mL/min/kg; with Homo sapiens [1], 0.9 mL/min/kg. For the same compound, the t1/2 is 7.7 h in the data set on Homo sapiens [1] (setting [4]), 17.1 h with Homo sapiens [1], 11.2 h in the data set with Homo sapiens [2] (dose Range 0.5 to 3 mg) and 16.3 hr [middle of 5 runs] with Homo sapiens [2]. This compound also showed a peak concentration (Cmax) in data set [3] (po) of 8 to 37 ng/mL. Also, the Tmax in data set [3] (dose Range 0.5 to 3 mg, route oral) lay in the range of 1 to 2 h.

A word on the Cmax: it is the peak of the concentration-time curve. By Tmax is commonly meant the time at which the peak concentration occurs.

The values above are taken from ChEMBL document CHEMBL3832032, “DailyMed|setid=2238e083-08f2-0aa8-59b7-16b6d68dbd48 | ALPRAZOLAM - alprazolam tablet|Apotex Corp”.
